# Experimental data as given in ChEMBL document CHEMBL1151982, “Natural products as tools for neuroscience: discovery and development of novel agents to treat drug abuse” (J Nat Prod, 2009).
# pEC50, pKi: −log10 of the molar value.
# Tests used:
# Format in all cases: functional
# [1] = target: T1, Kappa-type opioid receptor (Homo sapiens, UniProt P41145); experiment: Agonist activity at kappa opioid receptor by [35S]GTPgammaS binding assay
# [2] = target: T1, Kappa-type opioid receptor; experiment: Agonist activity at kappa opioid receptor by [35S]GTPgammaS binding assay relative to (-)-U50,488H
# [3] = target: T1, Kappa-type opioid receptor; experiment: Antagonist activity at kappa opioid receptor by [35S]GTPgammaS binding assay
# T1 sequence (P41145 whole entry): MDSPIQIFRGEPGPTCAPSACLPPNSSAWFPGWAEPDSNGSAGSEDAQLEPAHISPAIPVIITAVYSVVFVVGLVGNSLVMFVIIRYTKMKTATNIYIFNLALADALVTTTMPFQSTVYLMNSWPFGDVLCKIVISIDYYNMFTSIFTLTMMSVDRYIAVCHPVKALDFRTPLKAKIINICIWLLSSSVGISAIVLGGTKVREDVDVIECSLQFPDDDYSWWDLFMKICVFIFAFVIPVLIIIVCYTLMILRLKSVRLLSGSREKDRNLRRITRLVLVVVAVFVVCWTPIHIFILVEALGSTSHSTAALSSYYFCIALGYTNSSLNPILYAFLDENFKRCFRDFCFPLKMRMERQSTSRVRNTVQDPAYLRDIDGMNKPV
structure (smiles),measurement,setting,value
COC(=O)[C@@H]1C[C@H](OC(C)=O)C(=O)[C@H]2[C@@]1(C)CC[C@H]1C(=O)O[C@H]([C@]3(O)[C@H](OC)O[C@H](OC)[C@H]3O)C[C@]21C [SALVINICIN A],pEC50,[1],5.39
same,Emax,[2],80%
COC(=O)[C@@H]1C[C@H](OC(C)=O)C(=O)[C@@H]2[C@@]3(C)C[C@@H]([C@]4(O)[C@@H](OC)O[C@@H](OC)[C@H]4O)CC(=O)[C@@H]3CC[C@]21C [SALVINICIN B],pKi,[3],< 5.72
